Laboratory results reported in paper PMC6037691, “Selenazolyl-hydrazones as Novel Selective MAO Inhibitors With Antiproliferative and Antioxidant Activities: Experimental and In-silico Studies” (Frontiers in Chemistry, 2018).

Legend:
[1] = DPPH scavenging antioxidant assay; conditions: concentration providing 50% of radicals scavenging activity; mean ± SD, n = 3
Experimental: The experiments were performed according to the literature protocol (Prior et al., [2005]). All tested compounds were initially dissolved in DMSO. The initial concentration of DPPH in methanol was 6.58 × 10^−5 M. A volume of 140 μL of DPPH solution was placed into a 96-well microplate, and then 10 μL solution of the tested compounds was added. Pure DMSO (10 μL) was used as the control. The absorbance at 517 nm was measured after 30 min period of incubation in the dark at 25°C. The Equation (1) was used for calculation of the scavenging activity:
(1) Scavenging activity (%)=Acontrol- Asample/Acontrol×100
where Asample and Acontrol refer to the absorbances at 517 nm of the sample and control, respectively. IC50 values were calculated from the graph of scavenging activity against the concentrations of the samples. IC50 represents the total antioxidant concentration of the sample which decreases the amount of the initial DPPH radical by 50%. Ascorbic acid (vitamin C) was used as positive control (concentration range 10–500 μM).

[2] = test system: A549 (non-small cell lung); experiment: Antiproliferative activity, A549; type: cell-based, human; conditions: for GI50: Homo sapiens
Experimental: (§1) The in vitro antiproliferative activity of investigated compounds was evaluated against six human solid tumor cell lines: A549 (non-small cell lung), HBL-100, (breast), HeLa (cervix), SW1573 (non-small cell lung), as drug sensitive lines, T-47D (breast) and WiDr (colon) as drug resistant lines. These cell lines were a kind gift from Prof. G. J. Peters (VU Medical Center, Amsterdam, The Netherlands). For selectivity studies, the human fibroblasts BJ-hTert cell line was used, which was obtained from Dr. R. Freire (HUC, Tenerife, Canary Islands). Cells were kept in culture medium under standard conditions: RPMI 1640 medium, fetal bovine serum (5%), glutamine (2 mM), penicillin G (100 units/mL) and streptomycin (0.1 mg/mL). Antiproliferative tests were conducted as described earlier (Skehan et al., [1990]; Miranda et al., [2006]). Tested compounds were dissolved in DMSO at an initial concentration of 40 mM. DMSO was used as negative control (0.25% v/v). Antiproliferative activity of the compounds was expressed as GI50, which is the concentration of the compound that inhibits 50% of the culture growth.

T-47D (breast) = experiment: Antiproliferative activity, T-47D; type: cell-based, human; conditions: Homo sapiens, T47D, T-47D
Experimental: as §1

HeLa (cervix) = experiment: Antiproliferative activity, HeLa; type: cell-based, human; conditions: Homo sapiens
Experimental: as §1

MAO A = target: T1, MAO A (Homo sapiens, UniProt P21397); experiment: MAO A inhibition, discontinuous fluorimetric kynuramine assay; type: biochemical; conditions: 1 μM inhibitor; mean ± SD, n = 2; normalized to control
T1 construct: purchased Sigma-Aldrich
T1 sequence (P21397 1-527): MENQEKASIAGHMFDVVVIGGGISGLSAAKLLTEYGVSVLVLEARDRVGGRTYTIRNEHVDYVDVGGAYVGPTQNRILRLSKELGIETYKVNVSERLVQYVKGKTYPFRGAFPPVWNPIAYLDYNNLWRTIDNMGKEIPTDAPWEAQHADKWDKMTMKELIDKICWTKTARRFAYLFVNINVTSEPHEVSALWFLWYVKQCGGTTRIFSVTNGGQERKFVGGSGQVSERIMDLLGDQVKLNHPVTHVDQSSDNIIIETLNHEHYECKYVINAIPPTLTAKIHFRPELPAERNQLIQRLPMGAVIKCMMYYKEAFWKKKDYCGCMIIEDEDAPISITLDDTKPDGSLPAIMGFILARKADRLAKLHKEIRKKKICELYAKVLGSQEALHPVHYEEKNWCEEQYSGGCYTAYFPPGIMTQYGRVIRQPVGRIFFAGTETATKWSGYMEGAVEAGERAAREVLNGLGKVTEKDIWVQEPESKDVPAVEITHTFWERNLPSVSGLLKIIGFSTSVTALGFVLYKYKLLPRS
Experimental: MAO A and B inhibition capacities were investigated using a discontinuous fluorimetric assay (Meiring et al., [2013]) as described previously by using human recombinant membrane-bound MAO purchased from Sigma-Aldrich (Affini et al., [2018]). Briefly, remained enzyme activity with inhibitor, either 1 μM (one-point) or concentrations ranging from 0.0001 to 10 μM, was assessed in the presence of kynuramine [2 × KM, KM = 20 μM (MAO A), KM = 30 μM (MAO B)] in potassium phosphate buffer (pH 7.4). Reactions were started by addition of enzyme and stopped by manual addition of sodium hydroxide (2 N) after 20 min. Enzyme activity was determined by detection of 4-hydroxyquinoline (λEx = 320 nm, λEm = 405 nm). Data were analyzed using GraphPad PRISM 6. For one-point measurements data were calculated as percentage of control and expressed as mean ± standard deviation (%). […] Data were obtained from two (one-point measurements) or at least three (IC50 values) independent experiments, each performed in duplicates.

WiDr (colon) = experiment: Antiproliferative activity, WiDr; type: cell-based, human; conditions: Homo sapiens
Experimental: as §1

[3] = Total reducing power (TRP), modified potassium ferricyanide reduction method; conditions: concentration providing 0.500 of absorbance at 700 nm; mean ± SD, n = 3
Experimental: The mixture containing 0.5 mL of phosphate buffer (0.2 M, pH = 6.6), 0.5 mL of K3[Fe(CN)6] (1%; w/v) and 0.5 mL of the samples (100–1,500 μM) was incubated at 50°C for 20 min. A volume of 0.5 mL of trichloroacetic acid (TCA, 10%; w/v), 0.5 mL of Milli-Q water and 0.5 mL of FeCl3 (0.1%; w/v) was added, followed by intensive vortexing. The absorbance of the resulting mixture was measured after 60 min at 700 nm using phosphate buffer as blank (Oyaizu, [1986]).
Volume of 0.4 mL of sample solution (50–1,000 μM) was mixed with 1.6 mL of reagent solution [0.6 M H2SO4, 28 mM Na3PO4, and 4 mM (NH4)2MoO4] and resulting mixtures were incubated at 95°C for 90 min. The cooled reaction mixtures were then centrifuged for 10 min (3,000 rpm). The absorbance of the supernatant solution was measured, 1 h after centrifugation, at 695 nm against reagent solution as blank. An increased absorbance in reading in both assays indicated increased antioxidant power, expressed as EC50 values (the sample concentration giving absorbance of 0.500 from the graph of absorbance at 700 nm or 695 nm against compound concentration) (Prieto et al., [1999]).

[4] = test system: human fibroblasts BJ-hTert cell line; experiment: Selectivity, non-transformed fibroblasts BJ-hTert; type: cell-based; conditions: Fibroblast; BJ-hTert normal human cell line; concentrations up to 100 μM
Experimental: as §1

Row | SMILES | IC50 [1] | GI50 [2] | GI50 (T-47D (breast)) | GI50 (HeLa (cervix)) | inhibition at 1 µM (MAO A) | GI50 (WiDr (colon)) | EC50 [3] | melting point | GI50 [4] | antiproliferative activity class A549 [2]
1 | COc1ccc(-c2c[se]c(NN=Cc3ccccc3[N+](=O)[O-])n2)cc1 [Compound 2-OMe, 4-(4-methoxyphenyl)-2-(2-(2-nitrobenzylidene)hydrazinyl)-1,3-selenazole] | 40.5 ± 3.8 µM | 22 ± 5.6 µM | 36 ± 8.6 µM | 49 ± 12 µM | 28 ± 4% | 22 ± 2.3 µM | 560 ± 53 µM | 165 to 166 °C | > 100 µM | –
2 | O=[N+]([O-])c1cccc(C=NNc2nc(-c3ccccc3)c[se]2)c1 [Compound 3, 2-(2-(3-nitrobenzylidene)hydrazinyl)-4-phenyl-1,3-selenazole] | 174 ± 11.6 µM | 6.1 ± 0.8 µM | 52 ± 13 µM | 24 ± 7.1 µM | 32.7 ± 6.2% | 40 ± 0.6 µM | 420 ± 45 µM | 216 to 218 °C | > 100 µM | good activity (good activity (GI50 = 1–10 μM))
3 | Cc1ccc(-c2c[se]c(NN=Cc3cccc([N+](=O)[O-])c3)n2)cc1 [Compound 3-Me, 2-(2-(3-nitrobenzylidene)hydrazinyl)-4-(p-tolyl)-1,3-selenazole] | 152 ± 10.1 µM | 44 ± 15 µM | 46 ± 9.7 µM | 31 ± 4 µM | 13.4 ± 2.4% | 55 ± 19 µM | 480 ± 50 µM | 203 to 206 °C | > 100 µM | –
4 | COc1ccc(-c2c[se]c(NN=Cc3cccc([N+](=O)[O-])c3)n2)cc1 [Compound 3-OMe, 4-(4-methoxyphenyl)-2-(2-(3-nitrobenzylidene)hydrazinyl)-1,3-selenazole] | 298 ± 14.8 µM | 52 ± 1 µM | 67 ± 2.2 µM | 26 ± 2 µM | 31.2 ± 1.6% | > 100 µM | 488 ± 46 µM | 201 to 203 °C | > 100 µM | –
